Test results taken from article PMC5053573, “Structure-Based Design of Tetrahydroisoquinoline-7-carboxamides as Selective Discoidin Domain Receptor 1 (DDR1) Inhibitors” (Journal of Medicinal Chemistry, 2016).

Experiments:
Experiment in all cases: biochemical
Details in all cases: read-out: %Ctrl @ 1000nM
[1] = target: T1, TIE2 (Homo sapiens, UniProt Q02763)
T1 construct: gene TEK

[2] = target: CAMK2B (Homo sapiens, UniProt Q13554)
[3] = target: MYLK2 (Homo sapiens, UniProt Q9H1R3)
[4] = target: T2, MST4 (Homo sapiens, UniProt Q9P289)
T2 construct: gene STK26

[5] = target: RIPK2 (Homo sapiens, UniProt O43353)
[6] = target: T3, p38-gamma (Homo sapiens, UniProt P53778)
T3 construct: gene MAPK12

[7] = target: PIK3CA(Q546K) (Homo sapiens, UniProt P42336, Q546K)
[8] = target: T4, DLK (Homo sapiens, UniProt Q12852)
T4 construct: gene MAP3K12

[9] = target: T5, MEK5 (Homo sapiens, UniProt Q13163)
T5 construct: gene MAP2K5

[10] = target: ABL2 (Homo sapiens, UniProt P42684)
[11] = target: CAMK2G (Homo sapiens, UniProt Q13555)
[12] = target: ACVR2A (Homo sapiens, UniProt P27037)
[13] = target: SYK (Homo sapiens, UniProt P43405)
[14] = target: ABL1(H396P)-phosphorylated (Homo sapiens, UniProt P00519, H396P)
[15] = target: GRK2 (Homo sapiens, UniProt P25098)
[16] = target: ABL1-nonphosphorylated (Homo sapiens, UniProt P00519)
[17] = target: KIT(V559D,V654A) (Homo sapiens, UniProt P10721, V559D/V654A)
[18] = target: PIK3CA(H1047Y) (Homo sapiens, UniProt P42336, H1047Y)
[19] = target: CHEK1 (Homo sapiens, UniProt O14757)
[20] = target: T6, ERK3 (Homo sapiens, UniProt Q16659)
T6 construct: gene MAPK6

[21] = target: T7, PIP5K2B (Homo sapiens, UniProt P78356)
T7 construct: gene PIP4K2B

[22] = target: T8, IKK-epsilon (Homo sapiens, UniProt Q14164)
T8 construct: gene IKBKE

[23] = target: MET (Homo sapiens, UniProt P08581)
[24] = target: EPHB6 (Homo sapiens, UniProt O15197)
[25] = target: KIT(V559D) (Homo sapiens, UniProt P10721, V559D)
[26] = target: NEK1 (Homo sapiens, UniProt Q96PY6)
[27] = target: RIOK1 (Homo sapiens, UniProt Q9BRS2)
[28] = target: EPHB3 (Homo sapiens, UniProt P54753)
[29] = target: ABL1(F317I)-nonphosphorylated (Homo sapiens, UniProt P00519, F317I)
[30] = target: BMPR2 (Homo sapiens, UniProt Q13873)
[31] = target: T9, SIK (Homo sapiens, UniProt P57059)
T9 construct: gene SIK1

[32] = target: PRKD3 (Homo sapiens, UniProt O94806)
[33] = target: T10, NIK (Homo sapiens, UniProt Q99558)
T10 construct: gene MAP3K14

[34] = target: BTK (Homo sapiens, UniProt Q06187)
[35] = target: RIOK3 (Homo sapiens, UniProt O14730)

NEK1, sequence (Q96PY6 whole entry): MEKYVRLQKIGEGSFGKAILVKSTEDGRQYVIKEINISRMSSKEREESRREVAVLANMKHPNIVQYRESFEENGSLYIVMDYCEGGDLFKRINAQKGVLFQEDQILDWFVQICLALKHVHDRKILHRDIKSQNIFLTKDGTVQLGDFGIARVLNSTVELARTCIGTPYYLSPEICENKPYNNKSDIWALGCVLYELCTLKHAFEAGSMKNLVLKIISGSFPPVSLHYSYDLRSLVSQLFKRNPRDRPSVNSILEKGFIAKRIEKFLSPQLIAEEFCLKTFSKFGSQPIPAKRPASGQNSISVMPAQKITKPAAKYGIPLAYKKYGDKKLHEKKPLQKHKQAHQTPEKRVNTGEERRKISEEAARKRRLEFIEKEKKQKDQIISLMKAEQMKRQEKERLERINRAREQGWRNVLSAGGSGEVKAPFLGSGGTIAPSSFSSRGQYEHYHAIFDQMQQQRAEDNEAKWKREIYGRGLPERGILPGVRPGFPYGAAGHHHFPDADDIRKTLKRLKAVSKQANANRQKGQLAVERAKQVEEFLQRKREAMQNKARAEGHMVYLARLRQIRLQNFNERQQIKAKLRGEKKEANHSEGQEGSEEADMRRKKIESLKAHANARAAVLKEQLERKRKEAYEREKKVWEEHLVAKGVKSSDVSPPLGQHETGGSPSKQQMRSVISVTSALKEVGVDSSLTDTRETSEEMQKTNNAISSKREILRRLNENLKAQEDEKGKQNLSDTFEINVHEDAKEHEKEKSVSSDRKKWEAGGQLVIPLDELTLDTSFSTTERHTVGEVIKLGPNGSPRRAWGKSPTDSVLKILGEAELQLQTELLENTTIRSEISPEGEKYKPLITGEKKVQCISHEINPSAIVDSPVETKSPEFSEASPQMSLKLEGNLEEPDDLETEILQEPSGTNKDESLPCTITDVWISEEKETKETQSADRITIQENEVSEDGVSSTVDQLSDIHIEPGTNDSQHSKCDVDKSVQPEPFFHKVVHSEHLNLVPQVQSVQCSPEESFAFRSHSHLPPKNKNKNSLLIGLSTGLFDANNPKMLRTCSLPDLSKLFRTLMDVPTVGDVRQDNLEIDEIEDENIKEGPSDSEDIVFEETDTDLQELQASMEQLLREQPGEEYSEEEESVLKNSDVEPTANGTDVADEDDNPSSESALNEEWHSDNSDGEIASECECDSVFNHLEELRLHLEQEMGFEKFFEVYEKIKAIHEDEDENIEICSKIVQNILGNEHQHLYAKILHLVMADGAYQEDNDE
CHEK1, sequence (O14757 whole entry): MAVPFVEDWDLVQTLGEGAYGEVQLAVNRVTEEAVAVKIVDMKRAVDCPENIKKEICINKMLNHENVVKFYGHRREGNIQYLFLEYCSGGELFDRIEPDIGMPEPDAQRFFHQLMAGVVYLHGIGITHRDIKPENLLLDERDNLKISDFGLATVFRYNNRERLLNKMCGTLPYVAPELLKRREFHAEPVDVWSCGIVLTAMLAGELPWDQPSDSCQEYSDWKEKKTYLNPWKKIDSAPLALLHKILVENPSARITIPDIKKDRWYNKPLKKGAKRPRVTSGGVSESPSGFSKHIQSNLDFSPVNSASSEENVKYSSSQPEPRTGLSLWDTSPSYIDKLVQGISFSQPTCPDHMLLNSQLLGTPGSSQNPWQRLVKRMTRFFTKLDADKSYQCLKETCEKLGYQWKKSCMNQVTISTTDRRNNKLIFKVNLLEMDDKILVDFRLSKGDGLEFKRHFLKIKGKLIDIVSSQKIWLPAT
ABL2, sequence (P42684 whole entry): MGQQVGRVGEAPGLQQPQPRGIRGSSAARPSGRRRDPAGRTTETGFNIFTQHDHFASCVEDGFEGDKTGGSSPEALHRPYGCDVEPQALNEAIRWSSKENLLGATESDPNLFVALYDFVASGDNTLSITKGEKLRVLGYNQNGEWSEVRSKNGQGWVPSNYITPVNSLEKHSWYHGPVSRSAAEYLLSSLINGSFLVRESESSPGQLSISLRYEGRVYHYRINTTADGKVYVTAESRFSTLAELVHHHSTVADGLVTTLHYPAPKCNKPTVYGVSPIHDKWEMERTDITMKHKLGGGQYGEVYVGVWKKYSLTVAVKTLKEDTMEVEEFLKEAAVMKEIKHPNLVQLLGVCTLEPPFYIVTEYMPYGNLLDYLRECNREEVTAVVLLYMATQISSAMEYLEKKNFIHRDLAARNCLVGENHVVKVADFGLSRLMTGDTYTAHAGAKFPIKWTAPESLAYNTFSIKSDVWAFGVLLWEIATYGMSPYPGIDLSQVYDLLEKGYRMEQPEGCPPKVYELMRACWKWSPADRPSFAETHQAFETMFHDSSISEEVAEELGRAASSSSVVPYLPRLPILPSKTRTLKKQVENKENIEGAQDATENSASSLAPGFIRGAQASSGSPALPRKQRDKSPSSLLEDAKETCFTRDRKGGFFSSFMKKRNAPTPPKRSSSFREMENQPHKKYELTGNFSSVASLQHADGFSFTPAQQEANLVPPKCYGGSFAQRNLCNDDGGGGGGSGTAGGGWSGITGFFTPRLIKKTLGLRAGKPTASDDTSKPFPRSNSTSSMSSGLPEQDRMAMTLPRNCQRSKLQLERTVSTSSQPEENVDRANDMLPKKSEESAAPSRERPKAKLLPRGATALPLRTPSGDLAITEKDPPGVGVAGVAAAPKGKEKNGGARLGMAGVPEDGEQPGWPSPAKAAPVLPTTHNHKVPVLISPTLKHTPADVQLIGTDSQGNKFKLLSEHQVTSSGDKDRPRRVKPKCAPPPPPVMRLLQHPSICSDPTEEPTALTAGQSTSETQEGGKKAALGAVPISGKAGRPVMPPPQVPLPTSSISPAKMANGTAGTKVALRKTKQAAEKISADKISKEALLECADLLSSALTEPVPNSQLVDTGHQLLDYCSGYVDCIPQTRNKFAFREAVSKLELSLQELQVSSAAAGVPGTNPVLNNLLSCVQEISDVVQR
RIOK1, sequence (Q9BRS2 whole entry): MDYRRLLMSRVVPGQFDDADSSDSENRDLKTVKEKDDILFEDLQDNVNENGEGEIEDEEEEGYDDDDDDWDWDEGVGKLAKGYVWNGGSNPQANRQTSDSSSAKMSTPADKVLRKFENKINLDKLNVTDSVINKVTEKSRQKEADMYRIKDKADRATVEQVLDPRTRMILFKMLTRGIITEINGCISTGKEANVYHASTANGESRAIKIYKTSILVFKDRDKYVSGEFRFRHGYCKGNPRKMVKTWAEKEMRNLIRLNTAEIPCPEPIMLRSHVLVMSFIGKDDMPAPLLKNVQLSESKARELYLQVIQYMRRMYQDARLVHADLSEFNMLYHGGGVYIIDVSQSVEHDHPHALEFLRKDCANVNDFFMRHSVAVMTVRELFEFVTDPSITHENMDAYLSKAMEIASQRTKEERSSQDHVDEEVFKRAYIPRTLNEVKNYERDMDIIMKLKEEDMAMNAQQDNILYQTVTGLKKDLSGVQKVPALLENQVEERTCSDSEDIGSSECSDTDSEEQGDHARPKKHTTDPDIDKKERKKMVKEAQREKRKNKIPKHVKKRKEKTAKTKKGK
BMPR2, sequence (Q13873 whole entry): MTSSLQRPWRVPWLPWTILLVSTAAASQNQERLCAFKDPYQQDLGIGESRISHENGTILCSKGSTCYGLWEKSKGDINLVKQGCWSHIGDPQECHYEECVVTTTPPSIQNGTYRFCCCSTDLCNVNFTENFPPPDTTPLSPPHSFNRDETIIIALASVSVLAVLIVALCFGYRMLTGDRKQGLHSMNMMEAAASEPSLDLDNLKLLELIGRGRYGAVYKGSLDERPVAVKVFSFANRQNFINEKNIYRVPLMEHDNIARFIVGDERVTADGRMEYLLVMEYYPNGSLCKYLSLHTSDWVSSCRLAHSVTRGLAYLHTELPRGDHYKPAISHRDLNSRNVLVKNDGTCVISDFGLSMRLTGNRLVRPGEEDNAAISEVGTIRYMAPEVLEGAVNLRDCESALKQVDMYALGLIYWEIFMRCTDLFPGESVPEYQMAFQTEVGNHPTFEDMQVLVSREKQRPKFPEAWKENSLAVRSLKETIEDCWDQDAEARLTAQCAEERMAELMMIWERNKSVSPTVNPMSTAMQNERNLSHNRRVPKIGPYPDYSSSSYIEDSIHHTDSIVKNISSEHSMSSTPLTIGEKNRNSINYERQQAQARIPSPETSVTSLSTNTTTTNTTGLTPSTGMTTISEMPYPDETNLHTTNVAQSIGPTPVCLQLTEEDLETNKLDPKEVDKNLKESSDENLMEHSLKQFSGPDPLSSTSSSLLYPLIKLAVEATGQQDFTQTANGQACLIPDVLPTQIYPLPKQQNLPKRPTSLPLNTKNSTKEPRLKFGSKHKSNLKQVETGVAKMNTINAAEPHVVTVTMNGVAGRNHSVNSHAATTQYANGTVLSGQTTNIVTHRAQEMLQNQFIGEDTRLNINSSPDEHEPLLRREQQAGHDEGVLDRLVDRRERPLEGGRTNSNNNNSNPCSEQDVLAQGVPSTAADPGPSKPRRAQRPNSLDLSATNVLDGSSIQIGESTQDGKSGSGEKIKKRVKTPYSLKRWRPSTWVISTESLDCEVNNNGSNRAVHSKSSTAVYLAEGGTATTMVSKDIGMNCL
T5 sequence (Q13163 whole entry): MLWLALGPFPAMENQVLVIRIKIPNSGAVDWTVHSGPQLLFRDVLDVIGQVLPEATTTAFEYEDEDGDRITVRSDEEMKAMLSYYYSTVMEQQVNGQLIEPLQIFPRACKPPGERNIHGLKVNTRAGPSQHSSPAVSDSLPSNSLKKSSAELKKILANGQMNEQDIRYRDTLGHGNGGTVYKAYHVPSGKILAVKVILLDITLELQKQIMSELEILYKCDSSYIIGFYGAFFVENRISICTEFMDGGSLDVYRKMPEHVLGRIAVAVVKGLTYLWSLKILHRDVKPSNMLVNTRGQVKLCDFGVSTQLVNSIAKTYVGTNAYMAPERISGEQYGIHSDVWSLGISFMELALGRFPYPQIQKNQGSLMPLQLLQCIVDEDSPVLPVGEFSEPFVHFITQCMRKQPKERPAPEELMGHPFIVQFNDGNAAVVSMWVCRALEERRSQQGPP

remaining activity at 1 µM [1]: 64%
remaining activity at 1 µM [2]: 95%
remaining activity at 1 µM [3]: 100%
remaining activity at 1 µM [4]: 100%
remaining activity at 1 µM [5]: 80%
remaining activity at 1 µM [6]: 79%
remaining activity at 1 µM [7]: 100%
remaining activity at 1 µM [8]: 100%
remaining activity at 1 µM [9]: 100%
remaining activity at 1 µM [10]: 46%
remaining activity at 1 µM [11]: 63%
remaining activity at 1 µM [12]: 98%
remaining activity at 1 µM [13]: 93%
remaining activity at 1 µM [14]: 100%
remaining activity at 1 µM [15]: 96%
remaining activity at 1 µM [16]: 13%
remaining activity at 1 µM [17]: 86%
remaining activity at 1 µM [18]: 45%
remaining activity at 1 µM [19]: 96%
remaining activity at 1 µM [20]: 96%
remaining activity at 1 µM [21]: 81%
remaining activity at 1 µM [22]: 86%
remaining activity at 1 µM [23]: 100%
remaining activity at 1 µM [24]: 100%
remaining activity at 1 µM [25]: 80%
remaining activity at 1 µM [26]: 100%
remaining activity at 1 µM [27]: 100%
remaining activity at 1 µM [28]: 82%
remaining activity at 1 µM [29]: 80%
remaining activity at 1 µM [30]: 100%
remaining activity at 1 µM [31]: 84%
remaining activity at 1 µM [32]: 100%
remaining activity at 1 µM [33]: 100%
remaining activity at 1 µM [34]: 100%
remaining activity at 1 µM [35]: 100%
SMILES: Cc1cn(-c2cc(NC(=O)c3ccc4c(c3)CN(c3cncnc3)C[C@@H]4C)cc(C(F)(F)F)c2)cn1 [Compound 6j]
